How the values were obtained:
[1] = Drug distribution in Sprague-Dawley rat extensor digitorum longus to blood ratio at 100 mg/kg, po by HPLC analysis; type: ADME, organism-based
[2] = Oral bioavailability in female Sprague-Dawley rat at 3 mg/kg administered as single dose measured up to 24 hrs by HPLC analysis; type: ADME, organism-based; conditions: in vivo
[3] = Drug distribution in Sprague-Dawley rat plasma to blood ratio at 100 mg/kg, po by HPLC analysis; type: ADME, organism-based; conditions: in vivo
[4] = test system: Psoas muscle; assay: Increase in psoas muscle force in rabbit skinned single fiber preparation at a calcium concentration that produces a force increase that is 25% of the maximum response in a control preparation by skinned fast skeletal muscle fiber assay; type: functional; conditions: Oryctolagus cuniculus
[5] = Metabolic stability in human liver microsomes assessed as intrinsic clearance measured after 90 mins by HPLC/MS/MS analysis; type: ADME, Microsome; conditions: read-out: CLH
[6] = test system: Psoas muscle; assay: Activation of fast twitch skeletal muscle in rabbit psoas muscle myofibrils by measuring increase in myofibril ATPase activity at 25% calcium concentration; type: functional; conditions: Oryctolagus cuniculus
[7] = Clearance in female Sprague-Dawley rat at 3 mg/kg, po administered as single dose measured up to 24 hrs by HPLC analysis; type: ADME, organism-based; conditions: in vivo
[8] = Volume of distribution at steady state in Beagle dog at 3 mg/kg, po administered as single dose measured up to 24 hrs by HPLC analysis; type: ADME, organism-based, Canis lupus familiaris; conditions: in vivo
[9] = Plasma protein binding in female rat assessed as unbound fraction; type: ADME, cell-free
[10] = Plasma protein binding in dog assessed as unbound fraction; type: ADME, cell-free, Canis lupus familiaris
[11] = Oral bioavailability in mouse at 3 mg/kg administered as single dose measured up to 24 hrs by HPLC analysis; type: ADME, organism-based; conditions: in vivo
[12] = Efflux ratio of apparent permeability in human Caco-2 cells; type: ADME, cell-based
[13] = Metabolic stability in monkey liver microsomes assessed as intrinsic clearance measured after 90 mins by HPLC/MS/MS analysis; type: ADME, Macaca mulatta, Microsome; conditions: rhesus monkey, read-out: CLH
[14] = test system: Extensor digitorum longus; assay: Increase in muscle tension in rat extensor digitorum longus muscle rat model assessed as free plasma concentration to increase muscle tension at subtetanic nerve stimulation rate of 30 Hz; type: functional, tissue-based
[15] = Plasma protein binding in male rat assessed as unbound fraction; type: ADME, cell-free
[16] = Volume of distribution at steady state in mouse at 3 mg/kg, po administered as single dose measured up to 24 hrs by HPLC analysis; type: ADME, organism-based; conditions: in vivo
[17] = Intrinsic clearance in human hepatocytes; type: ADME, cell-based, Hepatocyte; conditions: read-out: CLH
[18] = Clearance in Beagle dog at 3 mg/kg, po administered as single dose measured up to 24 hrs by HPLC analysis; type: ADME, organism-based, Canis lupus familiaris; conditions: in vivo
[19] = Plasma protein binding in monkey assessed as unbound fraction; type: ADME, cell-free, Macaca mulatta; conditions: rhesus monkey
[20] = Intrinsic clearance in male rat hepatocytes; type: ADME, cell-based, Hepatocyte; conditions: read-out: CLH
[21] = Clearance in mouse at 3 mg/kg, po administered as single dose measured up to 24 hrs by HPLC analysis; type: ADME, organism-based; conditions: in vivo
[22] = Oral bioavailability in Beagle dog at 3 mg/kg administered as single dose measured up to 24 hrs by HPLC analysis; type: ADME, organism-based, Canis lupus familiaris; conditions: in vivo
[23] = Clearance in male Sprague-Dawley rat at 3 mg/kg, po administered as single dose measured up to 24 hrs by HPLC analysis; type: ADME, organism-based; conditions: in vivo
[24] = Metabolic stability in dog liver microsomes assessed as intrinsic clearance measured after 90 mins by HPLC/MS/MS analysis; type: ADME, Canis lupus familiaris, Microsome; conditions: read-out: CLH
[25] = Oral bioavailability in cynomolgus monkey at 3 mg/kg administered as single dose measured up to 24 hrs by HPLC analysis; type: ADME, organism-based, Macaca fascicularis; conditions: in vivo
[26] = Plasma protein binding in human assessed as unbound fraction; type: ADME, cell-free
[27] = Drug distribution in Sprague-Dawley rat Soleus muscle to blood ratio at 100 mg/kg, po by HPLC analysis; type: ADME, organism-based
[28] = Clearance in cynomolgus monkey at 3 mg/kg, po administered as single dose measured up to 24 hrs by HPLC analysis; type: ADME, organism-based, Macaca fascicularis; conditions: in vivo
[29] = Volume of distribution at steady state in cynomolgus monkey at 3 mg/kg, po administered as single dose measured up to 24 hrs by HPLC analysis; type: ADME, organism-based, Macaca fascicularis; conditions: in vivo
[30] = biological target: hERG (KCNH2) (Homo sapiens, UniProt Q12809); assay: Displacement of [3H]astemizole from human ERG expressed in HEK293 cells at 100 uM relative to control; type: cell-based; conditions: HEK293 cells that express hERG, probe [3H]astemizole
Sequence of hERG (KCNH2) (Q12809 whole entry): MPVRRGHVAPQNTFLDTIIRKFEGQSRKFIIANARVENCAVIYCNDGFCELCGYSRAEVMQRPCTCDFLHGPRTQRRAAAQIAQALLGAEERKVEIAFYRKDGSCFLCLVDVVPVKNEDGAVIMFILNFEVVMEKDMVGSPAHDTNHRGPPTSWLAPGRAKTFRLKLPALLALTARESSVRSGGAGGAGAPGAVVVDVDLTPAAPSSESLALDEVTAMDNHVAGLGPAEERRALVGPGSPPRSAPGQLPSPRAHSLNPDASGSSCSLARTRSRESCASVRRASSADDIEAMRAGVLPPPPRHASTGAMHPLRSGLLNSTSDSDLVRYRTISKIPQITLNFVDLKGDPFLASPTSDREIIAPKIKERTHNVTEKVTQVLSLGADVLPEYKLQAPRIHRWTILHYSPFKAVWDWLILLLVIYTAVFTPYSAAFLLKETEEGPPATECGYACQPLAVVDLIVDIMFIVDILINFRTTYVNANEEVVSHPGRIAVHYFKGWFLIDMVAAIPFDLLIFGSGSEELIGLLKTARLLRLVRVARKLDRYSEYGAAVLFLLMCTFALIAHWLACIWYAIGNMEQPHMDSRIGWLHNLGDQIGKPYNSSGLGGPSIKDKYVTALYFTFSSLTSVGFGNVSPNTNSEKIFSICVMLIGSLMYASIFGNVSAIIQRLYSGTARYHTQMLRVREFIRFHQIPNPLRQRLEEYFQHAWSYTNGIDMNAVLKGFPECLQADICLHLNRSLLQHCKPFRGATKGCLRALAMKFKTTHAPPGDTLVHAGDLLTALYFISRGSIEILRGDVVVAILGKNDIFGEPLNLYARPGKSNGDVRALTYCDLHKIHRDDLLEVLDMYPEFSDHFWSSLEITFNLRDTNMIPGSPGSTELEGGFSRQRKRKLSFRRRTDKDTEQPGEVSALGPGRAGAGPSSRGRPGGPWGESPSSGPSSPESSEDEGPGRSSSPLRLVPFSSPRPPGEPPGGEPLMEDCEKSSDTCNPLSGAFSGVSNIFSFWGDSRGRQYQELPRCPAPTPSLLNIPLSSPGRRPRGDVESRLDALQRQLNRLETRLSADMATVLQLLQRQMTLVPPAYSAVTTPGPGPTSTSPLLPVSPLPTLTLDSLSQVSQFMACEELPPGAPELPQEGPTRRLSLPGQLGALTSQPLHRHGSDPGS

[31] = Intrinsic clearance in monkey hepatocytes; type: ADME, cell-based, Macaca mulatta, Hepatocyte; conditions: rhesus monkey, read-out: CLH
[32] = biological target: T1, Nuclear receptor subfamily 1 group I member 2 (Homo sapiens, UniProt O75469); assay: Transactivation of human PXR transfected in DPX2 cells assessed as CYP3A4 induction at 10 uM by luciferase reporter gene assay; type: ADME, cell-based; conditions: dpx2, 10 µM
T1 sequence (O75469 whole entry): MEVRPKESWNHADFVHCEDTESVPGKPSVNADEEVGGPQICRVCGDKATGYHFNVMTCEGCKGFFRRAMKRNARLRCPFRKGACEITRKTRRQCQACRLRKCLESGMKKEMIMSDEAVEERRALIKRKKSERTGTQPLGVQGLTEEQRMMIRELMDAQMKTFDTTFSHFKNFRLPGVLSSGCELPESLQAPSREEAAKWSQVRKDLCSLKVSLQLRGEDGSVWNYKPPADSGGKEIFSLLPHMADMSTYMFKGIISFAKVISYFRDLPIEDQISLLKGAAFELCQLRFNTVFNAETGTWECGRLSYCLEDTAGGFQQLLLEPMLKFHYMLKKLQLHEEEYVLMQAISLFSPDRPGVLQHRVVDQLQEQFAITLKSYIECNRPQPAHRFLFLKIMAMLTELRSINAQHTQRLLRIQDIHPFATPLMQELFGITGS

[33] = Metabolic stability in male rat liver microsomes assessed as intrinsic clearance measured after 90 mins by HPLC/MS/MS analysis; type: ADME, Microsome; conditions: read-out: CLH
[34] = Volume of distribution at steady state in male Sprague-Dawley rat at 3 mg/kg, po administered as single dose measured up to 24 hrs by HPLC analysis; type: ADME, organism-based; conditions: in vivo
[35] = Volume of distribution at steady state in female Sprague-Dawley rat at 3 mg/kg, po administered as single dose measured up to 24 hrs by HPLC analysis; type: ADME, organism-based; conditions: in vivo
[36] = Intrinsic clearance in female rat hepatocytes; type: ADME, cell-based, Hepatocyte; conditions: read-out: CLH
[37] = Intrinsic clearance in dog hepatocytes; type: ADME, cell-based, Canis lupus familiaris, Hepatocyte; conditions: read-out: CLH
[38] = Drug distribution in Sprague-Dawley rat brain to blood ratio at 100 mg/kg, po by HPLC analysis; type: ADME, organism-based
[39] = Metabolic stability in female rat liver microsomes assessed as intrinsic clearance measured after 90 mins by HPLC/MS/MS analysis; type: ADME, Microsome; conditions: read-out: CLH

Kp [1]: 0.85
bioavailability [2]: 45%
Ratio [3]: 1
CLint scaled [5]: < 14 mL/min/kg
CL/F [7]: 24 mL/min/kg
Vdss [8]: 1.9 L/kg
fraction unbound [9]: 0.5
fraction unbound [10]: 0.5
bioavailability [11]: 47%
efflux ratio [12]: 3.1
CLint scaled [13]: 18 mL/min/kg
EC50 [14]: 38000 nM
fraction unbound [15]: 0.5
Vdss [16]: 3.3 L/kg
CLint scaled [17]: < 14 mL/min/kg
CL/F [18]: 22 mL/min/kg
fraction unbound [19]: 0.49
CLint scaled [20]: 56 mL/min/kg
CL/F [21]: 86 mL/min/kg
bioavailability [22]: 25%
CL/F [23]: 74 mL/min/kg
CLint scaled [24]: 11 mL/min/kg
bioavailability [25]: 26%
fraction unbound [26]: 0.49
Kp [27]: 0.77
CL/F [28]: 13 mL/min/kg
Vdss [29]: 1.3 L/kg
CLint scaled [31]: 23 mL/min/kg
Activity [32]: 18%
CLint scaled [33]: 15 mL/min/kg
Vdss [34]: 2.6 L/kg
Vdss [35]: 1.3 L/kg
CLint scaled [36]: 217 mL/min/kg
CLint scaled [37]: 37 mL/min/kg
Kp [38]: 0.063
CLint scaled [39]: 15 mL/min/kg
SMILES: NC(=O)c1ccn(-c2cnc(NC[C@]3(c4ncccc4F)C[C@H](F)C3)nc2)c1 [RELDESEMTIV]
EC30 [4]: 800 nM
EC40 [6]: 600 nM
inhibition at 100 µM [30]: 33%
